Results from patent US9567368B2, “Peptide tyrosinase activators” (Escape Therapeutics, Inc., priority 2013, dated 2017).
Where no end group is shown, it is not given here.

How the values were obtained:
[1] = tested on: purified mushroom tyrosinase; assay: Allosteric activation of tyrosinase after inhibition by 6BH4; type: biochemical
Experimental: To investigate the mechanism by which P9 and P10 exert their stimulatory effect on tyrosinase, 6BH4, an allosteric inhibitor of tyrosinase, was used in an experiment. In a 96-well plate, control wells containing substrate L-tyrosine, purified mushroom tyrosinase, and PBS (pH 6.8) were incubated at 37 degrees Celsius and periodically read at 475 nanometers. After 6 minutes, 20 micromolar 6BH4 was added to all wells except controls. At minute 12, the other triplicate wells received one of the following reagents: 20 micromolar of α-MSH, 100 micromolar of P4, P9, or P10, or 200 micromolar L-tyrosine.
In a 96-well plate the control wells contained substrate L-tyrosine, purified mushroom tyrosinase and PBS (pH 6.8). The plate was incubated at 37 degrees Celsius and periodically read at 475 nanometers. After six minutes, 6BH4 was added to all wells except the control triplicate. At minute 12, the other triplicate wells received one of the following reagents: 10 micromolar of α-MSH, 100 micromolar of P4, P9 or P10, and 200 micromolar L-tyrosine. Data shown are mean±SEM of three independent runs.

[2] = tested on: B16-F1 mouse melanoma cells; assay: Melanin content measurement (extracellular and intracellular) in B16 cells; type: cell-based; conditions: relative to control
Experimental: (§1) B16-F1 mouse melanoma cells (CRL-6323) were obtained and cultured in DMEM containing 10 percent fetal bovine serum, 100 units per milliliter (U/mL) penicillin, 0.1 mg/mL streptomycin, and 0.25 microgram per milliliter (μg/mL) amphotericin B at 37 degrees Celsius in a humidified 95 percent air/5 percent CO2 incubator. Drug treatment began 24 hours after seeding. Cells were harvested 72 hours later and melanin content and tyrosinase activity determined in triplicate.
Extracellular melanin was estimated spectro-photometrically based on its absorption of light at 475 nanometers. After 72 hours treatment period, medium was collected and centrifuged (800×g for 10 minutes) and absorbance read at 475 nanometers. For intracellular melanin content, cells were collected by centrifugation and resuspended in PBS. Aliquots were removed for cell counting and protein estimation. To the remaining suspension, an equal volume of ethanol:ether (1:1 volume to volume) was added in order to remove opaque substances other than melanin which is not soluble in ethanol/ether (see, for example, Oikawa et al., Yale J. Biol. Med., 1973, 46: 500-507). After further centrifugation at 3000×g for 5 minutes, the precipitate was solubilized by treatment with 1 milliliter of 1 N NaOH solution at 80 degrees Celsius for 30 minutes in capped tubes. The absorbance was measured at 475 nanometers and compared to a standard curve prepared from standard dopa-melanin dissolved in the same solution. Melanin content per microgram (μg) cellular protein was calculated and expressed as a percentage of control.
FIGS. 2A-2B show the effect of P9 and P10 on extracellular and intracellular melanin content. […] In a specific embodiment, general materials and methods include 3×10E5 B16 cells per well incubated for 72 hours. Control wells had media only. Other treatments were 600 micromolar L-tyrosine; 50 microgram per milliliter scoparone; 300 micromolar IBMX; 300 micromolar P9; and 300 micromolar P10. Data are expressed as a percentage of the control and are mean±SEM of three separate experiments and analyzed by one-way ANOVA. On the graph, for the bar corresponding to extracellular data (indicated by “*”), P<0.01 versus extracellular control, and for the second bar corresponding to intracellular data (indicated by “**”), P<0.01 versus intracellular control.

B16 tyrosinase = biological target: T1, B16 tyrosinase (Mus musculus, UniProt P11344); assay: Assay of B16 tyrosinase activity (DOPA oxidase activity); type: cell-based; conditions: for B16 tyrosinase activity increase: 72 hours incubation, relative to control cells; for EC50: approximate, see FIG. 3, read-out: EC 50 (dose that produces half the maximum response)
T1 construct: host or cells: B16-F1 mouse melanoma cells
T1 sequence (P11344 19-533): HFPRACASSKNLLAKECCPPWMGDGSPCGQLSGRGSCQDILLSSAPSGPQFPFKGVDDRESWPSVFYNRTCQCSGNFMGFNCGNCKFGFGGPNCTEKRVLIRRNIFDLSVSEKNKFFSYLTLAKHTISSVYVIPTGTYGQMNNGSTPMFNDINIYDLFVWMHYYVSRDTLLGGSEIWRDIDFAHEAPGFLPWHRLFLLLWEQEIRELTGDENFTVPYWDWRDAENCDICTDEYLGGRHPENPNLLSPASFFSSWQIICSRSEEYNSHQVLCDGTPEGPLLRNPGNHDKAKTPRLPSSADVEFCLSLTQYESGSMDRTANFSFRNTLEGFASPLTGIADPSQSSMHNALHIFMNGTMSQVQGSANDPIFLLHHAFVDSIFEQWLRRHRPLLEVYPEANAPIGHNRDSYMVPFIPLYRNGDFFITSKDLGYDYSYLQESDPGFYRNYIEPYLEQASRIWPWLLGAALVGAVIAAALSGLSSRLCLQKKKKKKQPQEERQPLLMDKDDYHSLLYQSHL
Experimental: as §1
Tyrosinase activity was assayed as DOPA oxidase activity. This can be according to traditional or modified assaying methods (see, for example, Yang et al., Acta Pharmacol. Sin. 2006, 27: 1467-1473). Cells were washed twice with PBS and lysed with 20 […] (mmol/L) Tris-0.1 percent Triton X-100 (pH 7.5). Tyrosinase activity was analyzed spectrophotometrically by following the oxidation of DOPA to DOPAchrome at 475 nanometers. The reaction mixture containing 100 microliter (μL) of freshly prepared substrate solution [0.1 percent L-DOPA in 0.1 mol/L sodium phosphate (pH 6.8)] and 50 microliters (μL) of enzyme solution was incubated at 37 degrees Celsius. Absorbance change was measured during the first 10 minutes of the reaction while the increase of the absorbance was linear, and corrections for auto-oxidation of L-DOPA in the controls were made. Activities were expressed as a percentage of control cells.
(§2) For the tyrosinase activity, the reaction mixture containing 100 microliter of freshly prepared substrate solution [0.1 percent L-DOPA in 0.1 moles per liter sodium phosphate (pH 6.8)] and 50 microliters of enzyme solution was incubated at 37 degrees Celsius. The absorbance change was measured during the first 10 minutes of the reaction while the increase of the absorbance was linear, and corrections for auto-oxidation of L-DOPA in the controls were made. Activities were expressed as a percentage of the control cells. MTT was performed following the manufacturer's protocol. Data are expressed as a percentage of control and are mean±SEM of three separate experiments.

mushroom tyrosinase = assay: Assay of mushroom tyrosinase activity (L-tyrosine substrate, dopachrome at 475 nm); type: biochemical; conditions: for mushroom tyrosinase activity increase: 1 millimolar
Experimental: The effect of pentapeptides P9 and P10 on mushroom tyrosinase activity was determined in vitro using L-tyrosine as the substrate (see, for example, Piao et al., Chem. Pharm. Bull. (Tokyo), 2002, 50: 309-311). The experiment was conducted in a 96-well flat-bottomed plate. Each well contained 80 microliters of 0.067 molar potassium phosphate buffer (pH 6.8), 40 microliters of 5 milligrams per milliliter L-tyrosine dissolved in 0.067 molar potassium phosphate buffer (pH 6.8), 40 microliters of the different concentrations of P9 or P10 dissolved in the same buffer, and 40 microliters of 480 units per milliliter mushroom tyrosinase solution. The final volume of each well was 200 microliters, containing […] L-tyrosine, 96 units per millileter tyrosinase and varying concentrations of P9 or P10, ranging from 30 micromolar to 1 millimolar. In the control wells, P9 and P10 were substituted with buffer solution and adjusted to a 200 microliters total volume. The assay mixture was incubated at 37 degrees Celsius and optical density (OD), which correlates to the amount of dopachrome produced, was measured periodically at 475 nanometers using a microplate reader (e.g., a Varioskan microplate reader from Thermo Electron Corporation).
FIGS. 4A and 4B show mushroom tyrosinase activity increased by 123±4 percent and 156±4 percent at 1 millimolar P9 and P10, respectively. […] In the control wells, the reaction mix included purified mushroom tyrosinase, PBS (pH 6.8) and substrate L-tyrosine. In the other triplicate wells, P9 or P10 were added at various concentrations. The reaction was incubated at 37 degrees Celsius and the plate was read periodically at 475 nanometers.

[3] = MTT proliferation and viability assay; type: cell-based; conditions: mouse, B16 cells, percentage of control, read-out: proliferation rate
Experimental: Proliferation rates were determined using a general cell proliferation kit (e.g., TACS® MTT Cell Proliferation Kit from R&D systems). Cells were plated at 2.5×10E4 per well in 96-well plates in a humidified atmosphere with 5 percent CO2 at 37 degrees Celsius. Twenty-four hours after plating, test samples were added and cultures were incubated for an additional 72 hours. The remainder of the procedure was performed following the manufacturer's protocol.
as §2

[4] = 300 micromolar, 72 hours incubation
[5] = 600 micromolar L-tyrosine, 72 hours
[6] = 10 micromolar α-MSH added at minute 12 after 6BH4

## C[C@H](O)[C@H](O)[C@H]1CNc2nc(N)[nH]c(=O)c2N1 [6BH4, (6R)-L-erythro-5,6,7,8-tetrahydrobiopterin]
[1]; 20 micromolar 6BH4 added after 6 minutes
  inhibition of tyrosinase activity: inhibited completely

## CC(C)Cn1c(=O)n(C)c(=O)c2[nH]cnc21 [IBMX, 3-isobutyl-1-methylxanthine]
[2]; [4]
  extracellular melanin content increase: 187±9%
  intracellular melanin content increase: 67±6%

## N[C@@H](Cc1ccc(O)cc1)C(=O)O [L-tyrosine]
[2]; [5]
  extracellular melanin content increase: 43±5%
  intracellular melanin content increase: 7±3%
[1]; 200 micromolar L-tyrosine added at minute 12 after 6BH4
  reversal of 6BH4-dependent tyrosinase inhibition: neither the addition of P4 nor L-tyrosine reversed

## COc1cc2ccc(=O)oc2cc1OC [scoparone, Scoparone]
[2]; 50 microgram per milliliter scoparone, 72 hours
  intracellular melanin content increase: 53±6.9%

## YRSRK [P10, YRSRK]
[2]; [4]
  intracellular melanin content increase: 62±6%
B16 tyrosinase; 3 millimolar
  B16 tyrosinase activity increase: 91±6%
B16 tyrosinase; 300 micromolar
  B16 tyrosinase activity increase: 48±5%
B16 tyrosinase
  EC50: ~300 µM
Mushroom tyrosinase
  mushroom tyrosinase activity increase: 156±4%
Mushroom tyrosinase; 30 micromolar
  dopachrome formation increase: 45±3%
Mushroom tyrosinase; 300 micromolar
  dopachrome formation increase: 134±3%
[3]
  viability at 72 h, 10 millimolar: 95 ± 2%

## YSSWY [P9, YSSWY]
[2]; [4]
  extracellular melanin content increase: 170%
  intracellular melanin content increase: 47±6%
B16 tyrosinase; 3 millimolar
  B16 tyrosinase activity increase: 84±3%
B16 tyrosinase; 300 micromolar
  B16 tyrosinase activity increase: 38±4%
B16 tyrosinase
  EC50: ~300 µM
Mushroom tyrosinase
  mushroom tyrosinase activity increase: 123±4%
Mushroom tyrosinase; 30 micromolar
  dopachrome formation increase: 28±3%
Mushroom tyrosinase; 300 micromolar
  dopachrome formation increase: 100±3%
[3]
  viability at 72 h, 10 millimolar: 94 ± 2%

## α-Melanocyte Stimulating Hormone [α-MSH]
[1]; [6]
  reversal of 6BH4-dependent tyrosinase inhibition (reactivation of the enzyme): reactivated the enzyme
  tyrosinase activity after reactivation, compared with control: increased its activity to levels exceeding the control
